Laboratory results: ChEMBL document CHEMBL5653615 (J Biol Chem, 2013)
Each block holds one molecule with its values, some of them ahead of it.

Tests used:
[1] = biological target: G protein-coupled receptor kinase 5 (Homo sapiens) (UniProt P34947); assay: Inhibition of human GRK5 at 18.6 nM by HotSpot assay relative to control
[2] = biological target: Tyrosine-protein kinase Lyn (Homo sapiens) (UniProt P07948); assay: Inhibition of human LYN B at 18.6 nM by HotSpot assay relative to control
[3] = biological target: Serine/threonine-protein kinase Nek6 (Homo sapiens) (UniProt Q9HC98); assay: Inhibition of human NEK6 at 18.6 nM by HotSpot assay relative to control
[4] = biological target: Protein kinase C beta type (Homo sapiens) (UniProt P05771); assay: Inhibition of human PKCb1 at 500 nM by HotSpot assay relative to control
[5] = biological target: T1, TGF-beta receptor type-1 (Homo sapiens) (UniProt P36897); assay: Inhibition of human ALK5 at 1.82 nM by HotSpot assay relative to control
T1 sequence (whole entry): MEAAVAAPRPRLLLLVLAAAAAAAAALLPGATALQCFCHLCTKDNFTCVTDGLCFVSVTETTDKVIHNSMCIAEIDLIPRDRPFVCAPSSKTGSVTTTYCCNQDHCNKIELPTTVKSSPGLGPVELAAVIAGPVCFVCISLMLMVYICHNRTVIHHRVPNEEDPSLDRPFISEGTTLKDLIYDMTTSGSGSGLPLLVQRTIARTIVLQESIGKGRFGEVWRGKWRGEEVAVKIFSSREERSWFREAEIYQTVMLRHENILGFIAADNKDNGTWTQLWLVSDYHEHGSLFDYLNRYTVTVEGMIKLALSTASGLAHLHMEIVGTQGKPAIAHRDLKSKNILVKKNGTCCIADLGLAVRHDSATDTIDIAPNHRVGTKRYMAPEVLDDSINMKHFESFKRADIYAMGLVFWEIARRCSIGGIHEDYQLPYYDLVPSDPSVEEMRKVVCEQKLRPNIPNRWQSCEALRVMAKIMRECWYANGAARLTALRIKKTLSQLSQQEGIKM

[6] = biological target: Aurora kinase B (Homo sapiens) (UniProt Q96GD4); assay: Inhibition of human Aurora B at 1.82 nM by HotSpot assay relative to control
[7] = biological target: Calcium/calmodulin-dependent protein kinase type 1D (Homo sapiens) (UniProt Q8IU85); assay: Inhibition of human CAMK1d at 1.82 nM by HotSpot assay relative to control
[8] = biological target: Cyclin-dependent kinase 5/CDK5 activator 1 (Homo sapiens) (UniProt Q00535+Q15078); assay: Inhibition of human CDK5/p25 at 1.82 nM by HotSpot assay relative to control; type: protein-complex assay
[9] = biological target: Insulin receptor-related protein (Homo sapiens) (UniProt P14616); assay: Inhibition of human IRR at 1.82 nM by HotSpot assay relative to control
[10] = biological target: T2, Protein kinase C epsilon type (Homo sapiens) (UniProt Q02156); assay: Inhibition of human PKCepsilon at 1.82 nM by HotSpot assay relative to control
T2 sequence (whole entry): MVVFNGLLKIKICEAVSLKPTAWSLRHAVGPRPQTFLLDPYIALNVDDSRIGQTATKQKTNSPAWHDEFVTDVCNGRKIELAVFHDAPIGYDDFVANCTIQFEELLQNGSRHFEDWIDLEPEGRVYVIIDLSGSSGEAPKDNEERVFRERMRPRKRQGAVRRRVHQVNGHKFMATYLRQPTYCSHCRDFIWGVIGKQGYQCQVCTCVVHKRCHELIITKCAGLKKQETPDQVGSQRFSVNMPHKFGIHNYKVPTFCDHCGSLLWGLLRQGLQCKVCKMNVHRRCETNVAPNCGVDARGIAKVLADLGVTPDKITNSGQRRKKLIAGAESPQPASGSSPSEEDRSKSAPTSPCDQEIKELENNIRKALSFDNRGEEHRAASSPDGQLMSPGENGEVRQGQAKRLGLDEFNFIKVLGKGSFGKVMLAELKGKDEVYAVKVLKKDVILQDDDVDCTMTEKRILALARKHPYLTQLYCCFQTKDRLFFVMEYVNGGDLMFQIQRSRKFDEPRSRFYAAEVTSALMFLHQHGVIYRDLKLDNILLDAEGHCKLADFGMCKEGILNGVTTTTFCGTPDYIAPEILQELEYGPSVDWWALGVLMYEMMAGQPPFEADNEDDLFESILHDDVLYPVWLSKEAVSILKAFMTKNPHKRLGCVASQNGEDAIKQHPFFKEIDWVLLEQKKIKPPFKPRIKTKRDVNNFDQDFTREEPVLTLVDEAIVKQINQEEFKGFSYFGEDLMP

[11] = biological target: T3, cGMP-dependent protein kinase 1 (Homo sapiens) (UniProt Q13976); assay: Inhibition of human PKG1b at 1.82 nM by HotSpot assay relative to control
T3 sequence (whole entry): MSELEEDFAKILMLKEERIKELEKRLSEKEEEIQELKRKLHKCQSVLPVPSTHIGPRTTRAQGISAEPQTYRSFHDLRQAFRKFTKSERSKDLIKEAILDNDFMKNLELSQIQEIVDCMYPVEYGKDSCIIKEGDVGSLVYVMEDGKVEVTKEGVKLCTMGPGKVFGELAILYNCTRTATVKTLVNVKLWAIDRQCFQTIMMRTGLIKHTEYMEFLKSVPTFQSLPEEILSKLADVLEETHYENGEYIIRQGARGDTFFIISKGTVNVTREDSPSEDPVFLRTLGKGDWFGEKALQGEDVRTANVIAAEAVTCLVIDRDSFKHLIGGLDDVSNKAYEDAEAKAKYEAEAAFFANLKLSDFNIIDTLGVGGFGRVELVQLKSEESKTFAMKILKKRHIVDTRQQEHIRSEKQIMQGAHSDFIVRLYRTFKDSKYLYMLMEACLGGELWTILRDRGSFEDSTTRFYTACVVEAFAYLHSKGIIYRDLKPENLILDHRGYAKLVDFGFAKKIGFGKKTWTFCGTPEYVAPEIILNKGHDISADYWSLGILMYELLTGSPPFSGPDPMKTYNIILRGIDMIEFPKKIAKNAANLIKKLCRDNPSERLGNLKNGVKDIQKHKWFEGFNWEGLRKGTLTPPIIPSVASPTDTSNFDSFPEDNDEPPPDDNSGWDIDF

[12] = biological target: T4, Testis-specific serine/threonine-protein kinase 1 (Homo sapiens) (UniProt Q9BXA7); assay: Inhibition of human TSSK1 at 1.82 nM by HotSpot assay relative to control
T4 sequence (whole entry): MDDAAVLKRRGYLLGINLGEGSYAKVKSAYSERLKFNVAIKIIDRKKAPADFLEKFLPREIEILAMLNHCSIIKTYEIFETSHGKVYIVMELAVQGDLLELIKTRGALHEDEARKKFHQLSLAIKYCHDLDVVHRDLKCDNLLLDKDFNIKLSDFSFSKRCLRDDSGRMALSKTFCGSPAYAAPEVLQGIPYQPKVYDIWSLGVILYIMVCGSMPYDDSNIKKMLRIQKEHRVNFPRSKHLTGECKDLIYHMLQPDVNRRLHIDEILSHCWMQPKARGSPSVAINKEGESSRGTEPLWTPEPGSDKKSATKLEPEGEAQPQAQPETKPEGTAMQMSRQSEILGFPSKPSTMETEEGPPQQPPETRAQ

Tyrosine-protein kinase Lyn (Homo sapiens), sequence (P07948 2-512 limits assumed): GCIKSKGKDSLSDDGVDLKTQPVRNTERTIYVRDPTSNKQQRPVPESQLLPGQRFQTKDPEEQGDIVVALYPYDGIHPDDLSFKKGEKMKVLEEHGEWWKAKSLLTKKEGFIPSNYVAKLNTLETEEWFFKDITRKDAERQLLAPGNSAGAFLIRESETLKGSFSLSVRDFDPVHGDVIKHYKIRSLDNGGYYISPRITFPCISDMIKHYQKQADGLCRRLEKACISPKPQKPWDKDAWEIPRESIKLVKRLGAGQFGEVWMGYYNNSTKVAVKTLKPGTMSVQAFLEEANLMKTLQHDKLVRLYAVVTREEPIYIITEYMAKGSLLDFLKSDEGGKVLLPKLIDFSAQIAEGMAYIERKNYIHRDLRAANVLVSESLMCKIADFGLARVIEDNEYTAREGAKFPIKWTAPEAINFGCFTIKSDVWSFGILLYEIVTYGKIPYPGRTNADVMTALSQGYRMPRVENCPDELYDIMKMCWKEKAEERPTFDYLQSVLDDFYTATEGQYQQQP
G protein-coupled receptor kinase 5 (Homo sapiens), sequence (P34947 whole entry, looked up): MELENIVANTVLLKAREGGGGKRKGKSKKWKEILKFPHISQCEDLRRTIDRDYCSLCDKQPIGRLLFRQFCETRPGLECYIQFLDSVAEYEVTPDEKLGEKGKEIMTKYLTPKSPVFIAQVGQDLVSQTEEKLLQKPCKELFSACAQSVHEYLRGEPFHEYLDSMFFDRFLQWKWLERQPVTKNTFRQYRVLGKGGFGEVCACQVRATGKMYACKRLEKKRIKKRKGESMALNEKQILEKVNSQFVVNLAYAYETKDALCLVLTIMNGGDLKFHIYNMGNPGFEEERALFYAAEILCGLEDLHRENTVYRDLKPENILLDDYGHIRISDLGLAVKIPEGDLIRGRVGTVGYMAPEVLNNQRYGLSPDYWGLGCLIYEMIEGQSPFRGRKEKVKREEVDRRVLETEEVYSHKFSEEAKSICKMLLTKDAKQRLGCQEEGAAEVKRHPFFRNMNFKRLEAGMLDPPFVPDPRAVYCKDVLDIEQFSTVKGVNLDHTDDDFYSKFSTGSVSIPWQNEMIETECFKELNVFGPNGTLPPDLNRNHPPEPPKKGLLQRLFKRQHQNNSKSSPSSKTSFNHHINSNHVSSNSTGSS
Serine/threonine-protein kinase Nek6 (Homo sapiens), sequence (Q9HC98 whole entry): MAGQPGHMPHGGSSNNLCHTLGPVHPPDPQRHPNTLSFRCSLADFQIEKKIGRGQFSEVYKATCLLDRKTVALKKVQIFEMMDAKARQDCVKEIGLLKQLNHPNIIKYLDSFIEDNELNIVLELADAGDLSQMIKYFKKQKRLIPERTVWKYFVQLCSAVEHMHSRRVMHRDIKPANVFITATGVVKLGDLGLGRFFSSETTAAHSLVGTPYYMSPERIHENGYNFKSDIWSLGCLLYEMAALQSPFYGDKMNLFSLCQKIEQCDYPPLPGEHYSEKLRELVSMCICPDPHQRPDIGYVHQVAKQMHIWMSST
Protein kinase C beta type (Homo sapiens), sequence (P05771 2-671 limits assumed): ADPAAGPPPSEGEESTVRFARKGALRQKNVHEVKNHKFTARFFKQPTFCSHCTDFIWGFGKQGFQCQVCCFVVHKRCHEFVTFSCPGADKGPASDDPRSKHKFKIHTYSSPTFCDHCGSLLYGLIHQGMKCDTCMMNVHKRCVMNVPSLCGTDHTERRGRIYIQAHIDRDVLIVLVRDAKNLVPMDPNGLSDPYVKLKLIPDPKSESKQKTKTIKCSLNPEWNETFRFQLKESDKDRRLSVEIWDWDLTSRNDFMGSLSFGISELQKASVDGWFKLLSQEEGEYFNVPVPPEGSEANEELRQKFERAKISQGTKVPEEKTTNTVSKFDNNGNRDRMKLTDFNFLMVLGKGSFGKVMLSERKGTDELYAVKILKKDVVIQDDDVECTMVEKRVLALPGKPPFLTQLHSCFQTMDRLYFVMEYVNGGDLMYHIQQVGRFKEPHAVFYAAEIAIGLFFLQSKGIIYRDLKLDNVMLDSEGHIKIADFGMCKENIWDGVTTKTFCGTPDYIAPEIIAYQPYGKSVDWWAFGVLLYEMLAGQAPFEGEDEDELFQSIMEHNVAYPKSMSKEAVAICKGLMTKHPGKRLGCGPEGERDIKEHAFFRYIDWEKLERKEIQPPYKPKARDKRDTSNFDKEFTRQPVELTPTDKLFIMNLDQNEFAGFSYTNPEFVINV
Insulin receptor-related protein (Homo sapiens), sequence (P14616 27-742 limits assumed): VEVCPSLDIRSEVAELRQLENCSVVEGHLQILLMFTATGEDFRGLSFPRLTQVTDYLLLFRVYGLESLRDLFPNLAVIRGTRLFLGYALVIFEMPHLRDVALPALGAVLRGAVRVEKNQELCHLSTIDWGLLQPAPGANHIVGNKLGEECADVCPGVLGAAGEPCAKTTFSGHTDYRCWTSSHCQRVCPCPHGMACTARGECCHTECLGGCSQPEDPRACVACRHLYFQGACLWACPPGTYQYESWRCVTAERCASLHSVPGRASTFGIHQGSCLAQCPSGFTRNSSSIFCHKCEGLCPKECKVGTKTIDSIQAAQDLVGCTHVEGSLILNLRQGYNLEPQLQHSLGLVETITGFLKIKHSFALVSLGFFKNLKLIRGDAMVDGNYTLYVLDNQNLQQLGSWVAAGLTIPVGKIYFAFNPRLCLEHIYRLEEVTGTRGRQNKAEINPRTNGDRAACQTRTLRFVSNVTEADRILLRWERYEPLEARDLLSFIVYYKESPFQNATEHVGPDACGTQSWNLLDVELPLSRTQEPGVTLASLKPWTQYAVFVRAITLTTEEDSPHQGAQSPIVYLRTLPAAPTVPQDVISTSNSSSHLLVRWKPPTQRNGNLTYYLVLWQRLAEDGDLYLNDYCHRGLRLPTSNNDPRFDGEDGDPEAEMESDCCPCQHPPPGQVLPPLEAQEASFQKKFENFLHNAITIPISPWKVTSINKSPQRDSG
Insulin receptor-related protein (Homo sapiens), sequence (P14616 747-1297 limits assumed): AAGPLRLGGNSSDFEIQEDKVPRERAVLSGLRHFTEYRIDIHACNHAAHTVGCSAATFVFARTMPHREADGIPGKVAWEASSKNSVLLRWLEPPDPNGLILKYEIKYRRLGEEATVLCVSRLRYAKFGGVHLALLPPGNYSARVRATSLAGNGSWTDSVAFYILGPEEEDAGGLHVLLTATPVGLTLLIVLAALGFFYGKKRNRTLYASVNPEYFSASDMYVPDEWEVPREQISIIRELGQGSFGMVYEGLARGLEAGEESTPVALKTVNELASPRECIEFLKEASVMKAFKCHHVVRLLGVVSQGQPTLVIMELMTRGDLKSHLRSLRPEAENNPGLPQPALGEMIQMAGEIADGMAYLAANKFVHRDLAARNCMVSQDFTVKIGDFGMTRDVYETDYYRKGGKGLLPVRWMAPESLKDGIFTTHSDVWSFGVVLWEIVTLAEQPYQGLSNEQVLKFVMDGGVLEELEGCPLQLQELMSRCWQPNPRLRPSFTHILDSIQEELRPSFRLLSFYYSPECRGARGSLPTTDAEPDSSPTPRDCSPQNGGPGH
Calcium/calmodulin-dependent protein kinase type 1D (Homo sapiens), sequence (Q8IU85 whole entry, looked up): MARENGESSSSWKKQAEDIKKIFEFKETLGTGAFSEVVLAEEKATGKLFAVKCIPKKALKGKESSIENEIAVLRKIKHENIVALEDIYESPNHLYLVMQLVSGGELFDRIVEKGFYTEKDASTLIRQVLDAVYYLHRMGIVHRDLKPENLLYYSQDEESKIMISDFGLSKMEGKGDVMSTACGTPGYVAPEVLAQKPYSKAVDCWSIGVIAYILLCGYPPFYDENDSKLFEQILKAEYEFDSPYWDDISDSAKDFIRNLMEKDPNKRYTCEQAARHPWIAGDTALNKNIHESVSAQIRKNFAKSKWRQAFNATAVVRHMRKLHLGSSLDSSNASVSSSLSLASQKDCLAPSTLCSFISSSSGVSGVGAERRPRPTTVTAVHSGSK
Cyclin-dependent kinase 5/CDK5 activator 1 (Homo sapiens), sequence (Q00535 whole entry): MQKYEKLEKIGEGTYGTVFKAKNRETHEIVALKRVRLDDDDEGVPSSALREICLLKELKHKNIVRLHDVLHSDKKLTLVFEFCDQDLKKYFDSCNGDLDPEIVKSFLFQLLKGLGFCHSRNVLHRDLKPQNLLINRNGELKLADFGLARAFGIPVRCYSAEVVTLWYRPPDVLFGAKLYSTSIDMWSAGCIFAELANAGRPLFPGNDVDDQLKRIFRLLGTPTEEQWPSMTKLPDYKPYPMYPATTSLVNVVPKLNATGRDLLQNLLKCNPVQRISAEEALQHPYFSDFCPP
Cyclin-dependent kinase 5/CDK5 activator 1 (Homo sapiens), sequence (Q15078 99-307 partner limits assumed): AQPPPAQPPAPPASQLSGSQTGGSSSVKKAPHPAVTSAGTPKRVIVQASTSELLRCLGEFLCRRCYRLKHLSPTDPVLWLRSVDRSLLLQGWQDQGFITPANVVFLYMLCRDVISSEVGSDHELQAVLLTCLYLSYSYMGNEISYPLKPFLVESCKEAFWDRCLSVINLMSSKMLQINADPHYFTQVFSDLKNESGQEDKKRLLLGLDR
Aurora kinase B (Homo sapiens), sequence (Q96GD4 whole entry): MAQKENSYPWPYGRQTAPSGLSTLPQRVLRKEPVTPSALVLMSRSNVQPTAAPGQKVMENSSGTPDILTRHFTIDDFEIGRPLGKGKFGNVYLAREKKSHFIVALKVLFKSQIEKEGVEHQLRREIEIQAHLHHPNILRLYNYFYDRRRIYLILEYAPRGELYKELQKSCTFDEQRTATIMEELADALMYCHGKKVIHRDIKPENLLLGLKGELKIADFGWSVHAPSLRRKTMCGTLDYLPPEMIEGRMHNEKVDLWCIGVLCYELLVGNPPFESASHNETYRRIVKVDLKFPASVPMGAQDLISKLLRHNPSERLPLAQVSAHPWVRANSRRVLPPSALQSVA

inhibition [1]: -6.77% | inhibition [2]: 4.09% | inhibition [3]: 14.9%
SMILES: C[C@]1(O)C[C@@H](c2nc(-c3ccc4ccc(-c5ccccc5)nc4c3)c3c(N)nccn32)C1

SMILES: Nc1n[nH]c2nnc(-c3c(-c4ccccc4)nn4ccccc34)cc12
inhibition [4]: 3.54%

inhibition [5]: -0.63% | inhibition [6]: -0.68% | inhibition [7]: -3.77% | inhibition [8]: 2.17% | inhibition [9]: 33.5% | inhibition [10]: -6.93% | inhibition [11]: -2.16% | inhibition [12]: 4.11%
SMILES: C[C@@]1(C(=O)Nc2ccc(F)nc2)CCCN1c1nc(Nc2cc(C3CC3)n[nH]2)c2cccn2n1
